Measurements reported in PMC12368482, “Antiprotozoal Activity of Highly Substituted Pyrazole and Pyrimidine Derivatives” (Chemmedchem, 2025).
Like-named read-outs stand apart in the source and are kept apart here.

What was measured:
Type in all cases: cell-based
[1] = MTT cytotoxicity assay on fibroblasts; settings: human, GM-6114 embryonic human fibroblasts, compounds tested at 10 μM for 48 h, percentage of control, read-out: Cell viability GM‐6114
Experimental: MTT assays: MTT assays were performed using GM‐6114 (embryonic human fibroblast, ATCC, Manassas, VA). The cells were grown in DMEM with 10% FBS, 2 mM glutamine, and 1% penstrep and incubated at 37 °C in 5% CO2 in a humidified environment. All reagents were purchased from EuroClone (Milan, Italy). Briefly, the cell line was plated in 96 well plates at an adequate number to reach 80%–90% of confluence at the end of the assay. 16 h after cell plating, compounds were dissolved in DMSO to give a 10 mM stock solution, diluted in growth medium, and added at a final working concentration of 10 μM. After 48 h of incubation, 30 μL of 3‐(4,5‐dimethyl‐2‐thiazolyl)‐2,5‐diphenyl‐2H‐tetrazolium bromide (MTT) at a concentration of 2 mg mL^−1 in PBS were added in each well. Then, after further 4 h of incubation, the supernatant was removed, and 100 μL/well of DMSO were used to dissolve the formazan precipitate that could be found in vital cells. After 20 min, the results were read at 570 nm by means of a plate reader. The results were expressed as percentage of the control samples in which the cells were incubated with the same amount of DMSO but without compounds. The assays were repeated three times. In each set, every single compound was tested six times. Variation among duplicates was less than 10%.

P. falciparum W2 = assay: Antiplasmodial susceptibility assay (pLDH), CQ-resistant W2 strain; settings: Plasmodium falciparum, read-out: IC50 P. falciparum W2
Experimental: (§1) Continuous in vitro Plasmodium falciparum cultures were carried out according to Trager and Jensen with slight modifications.^[ [38] ^] The CQ‐susceptible strain D10 and the CQ‐resistant strain W2 were maintained at 5% hematocrit (human type A‐positive red blood cells) in RPMI 1640 (EuroClone, Celbio) medium with the addition of 1% AlbuMax (Invitrogen, Milan, Italy), 0.01% hypoxanthine, 20 mM HEPES (at pH 7.4), and 2 mM glutamine. All the cultures were maintained at 37 °C in a low‐oxygen atmosphere consisting of 1% O2, 5% CO2, and 94% N2. Compounds were dissolved in DMSO to a stock concentration of 10 mg/ml and then diluted with complete medium to achieve the desired concentrations (final DMSO concentration <1%, which is nontoxic to the parasite). Derivatives were placed in 96‐well flat‐bottomed microplates in duplicate, and seven 1:2 serial dilutions were made directly in the plate in a volume of 100 μL. Asynchronous cultures with parasitemia of 1%–1.5% (assessed through Giemsa stained blood smears) and 1% final hematocrit were aliquoted into the plates and incubated for 72 h at 37 °C in a final volume of 200 μL/well. Uninfected erythrocytes at 2% hematocrit were used as blank. The antimalarial CQ was tested against the parasite strains as a positive control of inhibition. Parasite growth was determined spectrophotometrically (OD650) by measuring the activity of the parasite lactate dehydrogenase (pLDH), according to a modified version of the method of Makler in control and drug‐treated cultures.^[ [39] ^] The antimalarial activity was expressed as 50% inhibitory concentrations (IC50). The IC50 values were extrapolated from nonlinear regression analysis of the concentration–response curve, using the software Gen5 1.10 provided with the Synergy 4 (BioTek) reader. Each IC50 value was the mean of three independent experiments run in duplicates.

P. falciparum D10 = assay: Antiplasmodial susceptibility assay (pLDH), CQ-sensitive D10 strain; settings: Plasmodium falciparum, read-out: IC50 P. falciparum D10
Experimental: as §1

L. tropica promastigotes = assay: Antileishmanial evaluation (MTT), promastigotes; settings: Leishmania tropica, 72 h, NA = not active
Experimental: (§2) The promastigote stage of L. infantum strain MHOM/TN/80/IPT1 (kindly provided by Dr M. Gramiccia, ISS, Roma) and L. tropica strain (MHOM/IT/2012/ISS3130) were cultured in RPMI 1640 medium (EuroClone) supplemented with 10% heat‐inactivated fetal calf serum (EuroClone), 20 mM Hepes, and 2 mM L‐glutamine at 24 °C. To determine the 50% inhibitory concentration (IC50), the MTT method was used.^[ [40], [41] ^] Compounds were dissolved in DMSO and then diluted with medium to achieve the required concentrations. Drugs were placed in 96 wells round‐bottom microplates and seven serial dilutions made. Amphotericin B was used as reference antiLeishmania drug. Parasites were diluted in complete medium to 5 × 10^6 parasites mL^−1 and 100 μL of the suspension was added to each well. The plates were incubated at 24 °C for 72 h, after the incubation 20 μL of MTT solution (5 mg mL^−1) was added to each well and incubated for additional 3 h. The plates were then centrifuged at 1000 × g for 8 min at room temperature and the supernatants were discarded. The resulting pellets were dissolved in 100 μL of lysing buffer consisting of 20% w/v of a solution of SDS (Sigma), 40% of DMF (Merck) in H2O. The absorbance was measured spectrophotometrically at a test wavelength of 550 nm and a reference wavelength of 650 nm. The results were expressed as IC50 which was the concentration of compound necessary to inhibit parasite growth by 50%; each IC50 value was the mean of separate experiments performed in duplicate.

[2] = tested on: L. infantum promastigotes; assay: Antileishmanial evaluation (MTT), promastigotes; settings: Leishmania infantum, 72 h, NA = not active
Experimental: as §2

[3] = CQ-resistant strain W2, 72 h, pLDH readout, mean of three independent experiments in duplicate, NA = not active
[4] = CQ-sensitive strain D10, 72 h, pLDH readout, mean of three independent experiments in duplicate, NA = not active

Compound | IC50 (P. falciparum W2; [3]) [µM] | IC50 (P. falciparum D10; [4]) [µM] | IC50 (L. tropica promastigotes) [µM] | IC50 [2] [µM] | viability at 48 h, 10 μM [1] [%] | IC50 (P. falciparum W2; W2, 72 h) [µM] | IC50 (P. falciparum D10; D10, 72 h) [µM]
N#Cc1c(-c2ccccc2)nc(N)nc1N1CCOCC1 [17b, 2‐amino‐4‐morpholino‐6‐phenylpyrimidine‐5‐carbonitrile] |  |  |  |  | 66 |  | 
COc1ccc(CCNc2[nH]nc(N)c2S(=O)(=O)c2ccccc2)cc1OC [15a, N ^ 5 ‐(3,4‐dimethoxyphenethyl)‐4‐(phenylsulfonyl)‐1H‐pyrazole‐3,5‐diamine] |  |  |  |  | 70 |  | 
CC(C)(C)c1n[nH]c(N2CCOCC2)c1C#N [13b, 3‐(tert‐butyl)‐5‐morpholino‐1H‐pyrazole‐4‐carbonitrile] |  |  |  |  | 91 |  | 
N#Cc1c(-c2ccccc2)n[nH]c1N1CCC(c2ccccc2)CC1 [14c, 3‐phenyl‐5‐(4‐phenylpiperidin‐1‐yl)‐1H‐pyrazole‐4‐carbonitrile] | 23.4 | 31 | 21.3 | 22.4 | 76 |  | 
N#Cc1c(O)nc(N)nc1N1CCOCC1 [16b, 2‐amino‐4‐hydroxy‐6‐morpholinopyrimidine‐5‐carbonitrile] |  |  |  |  | 65 |  | 
COc1ccc(CCNc2nc(N)nc(-c3ccccc3)c2C#N)cc1OC [17a, 2‐amino‐4‐((3,4‐dimethoxyphenethyl)amino)‐6‐phenylpyrimidine‐5‐carbonitrile] |  |  |  |  | 46 |  | 
CCN(CC)CCCC(C)Nc1ccnc2cc(Cl)ccc12 (stereo not shown) [CQ, chloroquine, reference compound] |  |  |  |  |  | 0.45 | 0.04
CC(C)(C)c1n[nH]c(N2CCC(c3ccccc3)CC2)c1C#N [13c, 3‐(tert‐butyl)‐5‐(4‐phenylpiperidin‐1‐yl)‐1H‐pyrazole‐4‐carbonitrile] | 11.1 | 14.9 | 34.6 | 30.4 | 94 |  | 
N#Cc1c(-c2ccccc2)n[nH]c1N1CCOCC1 [14b, 5‐morpholino‐3‐phenyl‐1H‐pyrazole‐4‐carbonitrile] |  |  |  | 75.9 | 84 |  | 
COc1ccc(CCNc2[nH]nc(-c3ccccc3)c2C#N)cc1OC [14a, 5‐((3,4‐dimethoxyphenethyl)amino)‐3‐phenyl‐1H‐pyrazole‐4‐carbonitrile] | 36.5 | 35.1 | 55.7 | 40.1 | 87 |  | 
COc1ccc(CCNc2[nH]nc(C(C)(C)C)c2C#N)cc1OC [13a, 3‐(tert‐butyl)‐5‐((3,4‐dimethoxyphenethyl)amino)‐1H‐pyrazole‐4‐carbonitrile] | 25.6 | 28.6 | 52.2 | 40.1 | 82 |  | 

More lines, main results first:

IC50 (P. falciparum W2; [3]) [µM] | IC50 (P. falciparum D10; [4]) [µM] | IC50 (L. tropica promastigotes) [µM] | IC50 [2] [µM] | Compound | viability at 48 h, 10 μM [1] [%] | IC50 (P. falciparum W2; W2, 72 h) [µM] | IC50 (P. falciparum D10; D10, 72 h) [µM]
4.18 | 16.7 | 9.14 | 7.31 | CCCCN(CCCC)CCCNc1nc(N)nc(-c2ccccc2)c1C#N [17e, 2‐amino‐4‐((3‐(dibutylamino)propyl)amino)‐6‐phenylpyrimidine‐5‐carbonitrile] | 67 |  | 
9 | 9.52 | 11.6 | 7.92 | CCCCN(CCCC)CCNc1[nH]nc(-c2ccccc2)c1C#N [14d, 5‐((2‐(dibutylamino)ethyl)amino)‐3‐phenyl‐1H‐pyrazole‐4‐carbonitrile] | 71 |  | 
21 | 27.8 | 21.2 | 17.7 | N#Cc1c(-c2cccc(Br)c2)n[nH]c1Nc1ccccc1 [VIa, reference compound] | 78 |  | 
32.7 | 34.3 | 23.2 | 19.1 | N#Cc1c(-c2ccc(Cl)cc2)n[nH]c1Nc1ccccc1 [VIb, reference compound] | 70 |  | 
50.4 | 49.6 |  |  | Nc1n[nH]c(N2CCOCC2)c1S(=O)(=O)c1ccccc1 [15b, 5‐morpholino‐4‐(phenylsulfonyl)‐1H‐pyrazol‐3‐amine] | 87 |  | 
51.8 | 38 | 44 | 27.4 | Nc1n[nH]c(N2CCC(c3ccccc3)CC2)c1S(=O)(=O)c1ccccc1 [15c, 5‐(4‐phenylpiperidin‐1‐yl)‐4‐(phenylsulfonyl)‐1H‐pyrazol‐3‐amine] | 102 |  | 
31.7 | 9.24 |  |  | COc1ccc(CCNc2nc(N)nc(O)c2C#N)cc1OC [16a, 2‐amino‐4‐((3,4‐dimethoxyphenethyl)amino)‐6‐hydroxypyrimidine‐5‐carbonitrile] | 67 |  | 
4.34 | 9.79 | 8.32 | 6.17 | CCCCN(CCCC)CCCNc1[nH]nc(-c2ccccc2)c1C#N [14e, 5‐((3‐(dibutylamino)propyl)amino)‐3‐phenyl‐1H‐pyrazole‐4‐carbonitrile] | 65 |  | 
19.9 | 19.8 | 23.2 | 19.3 | N#Cc1c(-c2ccc(Br)cc2)n[nH]c1Nc1ccccc1 [VIc, reference compound] | 67 |  | 
45 |  |  |  | CCCCN(CCCC)CCCNc1nc(N)nc(O)c1C#N [16e, 2‐amino‐4‐((3‐(dibutylamino)propyl)amino)‐6‐hydroxypyrimidine‐5‐carbonitrile] | 66 |  | 
 |  | 0.29 | 0.22 | C[C@@H]1[C@H](O)[C@@H](C)/C=C/C=C/C=C/C=C/C=C/C=C/C=C/[C@H](O[C@@H]2O[C@H](C)[C@@H](O)[C@H](N)[C@@H]2O)C[C@@H]2O[C@](O)(C[C@@H](O)C[C@@H](O)[C@H](O)CC[C@@H](O)C[C@@H](O)CC(=O)O[C@H]1C)C[C@H](O)[C@H]2C(=O)O [AmB, amphotericin B, reference compound] |  |  | 
13.4 | 43.3 | 9.74 | 11 | CCN(CC)CCCC(C)Nc1[nH]nc(-c2ccccc2)c1C#N (stereo not shown) [14f, 5‐((5‐(diethylamino)pentan‐2‐yl)amino)‐3‐phenyl‐1H‐pyrazole‐4‐carbonitrile] | 58 |  | 
